From US20240398767A1, “INHIBITORS OF THE MTDH-SND1 PROTEIN COMPLEX FOR CANCER THERAPY” (The Trustees of Princeton University, priority 2021, published 2024)

How the values were obtained:
orthotopic PyMT tumors = test: Established orthotopic PyMT tumors in FVB female mice; type: in vivo
Experimental: FIG. 5B, Tumor size was determined. Vehicle, n=10 mice, C26-A6, n=12 mice. Significance determined by Two-Way Repeated Measures ANOVA test.
FIG. 5C, Tumor mass was determined. Vehicle, n=10 mice, C26-A6, n=12 mice. Size bar, 2 cm.
FIG. 5D, H&E staining was performed with lungs, and metastatic nodules were counted. The metastatic nodules of the representative lungs were highlighted with red and blue respectively. Vehicle, n=10 lungs; C26-A6, n=12 lungs. Size bar, 5 mm.
FIG. 13D, Primary tumors from experiment in FIG. 5B were stained with Ki67 and Cleaved-Caspase 3 (Casp-3) antibodies. Size bar, 100 μm.
FIG. 13E, Positive cells were quantified. Data represent mean±SEM. n=6 mice.
Next, established orthotopic PyMT tumors^4 were treated with vehicle or C26-A6 (FIG. 5A). […] The results were confirmed with SCP28 xenograft tumor model in NSG mice (FIGS. 13A-13C).
Methods: Animal models. All procedures involving mice and experimental protocols were approved by the Institutional Animal Care and Use Committees (IACUC) of Princeton University. According to the approved IACUC protocol (1881-20), the primary humane endpoint of tumor burden for an individual mouse is 20 mm in any dimension or a total volume of 4000 mm^3 for mice with multiple tumors. Mice were euthanized before exceeding the limit of tumor burden in this study. In the facility, mice were maintained at 20-22° C. with 14 h:10 h light:dark cycles at 40-70% relative humidity. The Mtdh^fl/fl ES cell lines generated by Mtdh targeting vector (CSD48311) was obtained from the KOMP Repository. The ES cells were injected into the C57BL/6 blastocysts followed by confirmation of germline transmission. Mtdh^fl/fl mice were crossed with FLPe mice to remove the selection marker in the vector. Genotyping (Forward primer: […] (SEQ ID NO:21); Reverse primer: […] (SEQ ID NO:22)) was performed to identify positive mice before they were crossed to other strains that were indicated in each experiment. FLPe (Stock No. 003946), MMTV-PyMT (Stock No. 002374), MMTV-WNT1 (Stock No. 002934), C3 (Stock No. 013591), UBC-Cre^ERT2 (Stock No. 007001), FVB (Stock No. 001800), Balb/C (Stock No. 000651), Athymic nude (Nude) (Stock No. 002019), and NOD Scid Gamma (NSG) (Stock No. 005557) were obtained from Jackson Laboratory. Mice in C57BL/6 background were backcrossed to FVB for at least 10 generations to change the background. […] The tumors were measured by calipers for calculation of tumor volumes (length×width^2/2). For cell lines that are stably labeled with a firefly luciferase expressing vector, lung metastases were monitored by bioluminescent imaging (BLI) and images were processed with Living Image 3D Analysis (version 1.0). […]

SCP28 cells = test: Experimental lung metastasis of SCP28 cells; type: in vivo; conditions: 5 weeks treatment
Experimental: FIG. 17D, Tail-vein injection lung metastasis was determined by BLI right before (Week 0) or after (5 weeks) vehicle or C26-A6 treatment. Vehicle, n=11 lungs; C26-A6, n=12 lungs.
FIG. 17E, Lung metastatic nodules were quantified. The metastatic nodules of the representative lungs were highlighted with red and blue respectively. Size bar, 5 mm. Vehicle, n=11 lungs; C26-A6, n=12 lungs.
To exclude the possibility that the lung metastasis reduction upon C26-A6 treatment was due to the smaller primary tumor, tail vein injection of PyMT tumor cells was performed to form experimental lung metastasis in FVB mice. Three days later, mice were divided randomly into two groups and treated with vehicle or C26-A6 respectively (FIG. 5L).

[1] = test system: E0771-OVA control (shCtrl) cells; test: E0771-OVA shCtrl cells / OT-I splenocyte co-culture; type: cell-based, mouse; conditions: 24 hr co-culture
From the text: For FIGS. 33B-33D, E0771-OVA cells with (shTap1/2) or without (shCtrl) Tap1/2 knockdown were co-cultured with OT-I splenocytes with the ratio of 1:10 (tumor cells:splenocytes). Data represent mean±SEM. n=3 independent experiments. Significance determined by one-way ANOVA analysis with Sidak's test for multiple comparisons.
FIG. 33B, 24 hr after co-culture, tumor cells were collected for examining OVA (H-2K^b-SIINFEKL) expression.
FIG. 33C, 24 hr after co-culture, tumor cells were collected for examining MHC-I expression.
FIG. 33D, 24 hr after co-culture, splenocytes were collected for examining CD137 expression.
MTDH-SND1 suppresses antigen presentation by reducing Tap1/2. To confirm that MTDH-SND1 drives immune evasion through suppressing the Tap1/2 pathway, antigen presentation-deficient cells were generated by knocking down Tap1/2^20. E0771-OVA cells were transduced with lentiviruses expressing Tap1/2-targeting shRNAs. Tap1/2 KD was confirmed by western blot (FIG. 33A), and antigen presentation deficiency upon Tap1/2 KD was also validated (FIGS. 33B, 33C). Next, shCtrl (control shRNA) or Tap1/2 KD cells were co-cultured with OT-I splenocytes together with vehicle or C26-A6 treatment.

[2] = 15 mg/kg i.v., continuous treatment

COc1ccc(Cl)cc1S(=O)(=O)Nc1cccn2nc(C)nc12 [Analog C26-A6]
primary tumor growth (orthotopic PyMT tumors; [2]): significantly inhibited
spontaneous lung metastasis (orthotopic PyMT tumors; [2]): significantly inhibited
tumor apoptosis (cleaved-Caspase 3) (orthotopic PyMT tumors; IHC of primary tumors): induced tumor apoptosis
tumor proliferation (Ki67) (orthotopic PyMT tumors; IHC of primary tumors): reduced tumor proliferation
experimental lung metastasis (SCP28 cells): dramatically inhibited
antigen presentation and T cell activation [1]: significant increase
